Test results as given in patent US20250176599A1, “FLAVOR COMPOSITION AND FOOD AND BEVERAGE” (TAKASAGO INTERNATIONAL CORPORATION, priority 2021, published 2025).

How the values were obtained:
[1] = Sensory evaluation of aqueous solution IV containing 1,5-octadien-3-one 100 ppt: off-flavor intensity and masking component intensity; conditions: aqueous solution IV, average panel score
Summary of the method: (§1)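 Nootkatone added to degradation-component solutions in ion-exchanged water and scored by eight experienced panelists. Off-flavor rated 0–4 relative to unmasked solution (4) and plain water (0). Masking-component intensity rated on an absolute 0–4 scale.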

[2] = Sensory evaluation of aqueous solution II containing (E)-2-octenal 10 ppb: off-flavor intensity and masking component intensity; conditions: average panel score
Summary of the method: as §1

[3] = Sensory evaluation of aqueous solution V containing 1-octen-3-ol 10 ppb: off-flavor intensity and masking component intensity; conditions: average panel score
Summary of the method: as §1

[4] = Sensory evaluation of aqueous solution VI containing 1,5-octadien-3-ol 10 ppb: off-flavor intensity and masking component intensity; conditions: aqueous solution VI, average panel score
Summary of the method: as §1

[5] = Sensory evaluation of aqueous solution I containing (E)-2-nonenal 1 ppb: off-flavor intensity and masking component intensity; conditions: average panel score
Summary of the method: as §1

[6] = Overall conclusion of the sensory evaluation across aqueous solutions I to VI
Summary of the method: as §1

[7] = Sensory evaluation of aqueous solution III containing 1-octen-3-one 1 ppb: off-flavor intensity and masking component intensity; conditions: average panel score
Summary of the method: as §1

In the case of `C=CC(C)(O)CCC=C(C)CCC=C(C)C` (centres unmarked) [nerolidol], the “Masking Component Intensity” value ([1]; 1 ppb added) is reported as 0.4, the “Off-Flavor Intensity” value ([1]; 1 ppb added) is reported as 3.1 and the “Masking Component Intensity” value ([1]; 1 ppm added) is reported as 2.0. The “Off-Flavor Intensity” value ([1]; 1 ppm added) was 2.3, the “Masking Component Intensity” value ([1]; 5 ppm added) was 3.0 and the “Off-Flavor Intensity” value ([1]; 5 ppm added) was 1.9. The “Masking Component Intensity” value ([1]; 10 ppb added) was 0.6, the “Off-Flavor Intensity” value ([1]; 10 ppb added) was 3.0 and the “Masking Component Intensity” value ([1]; 10 ppm added) was 3.6. The “Off-Flavor Intensity” value ([1]; 10 ppm added) was 1.4, the “Masking Component Intensity” value ([1]; 10 ppt added) was 0.1 and the “Off-Flavor Intensity” value ([1]; 10 ppt added) was 3.6. The “Masking Component Intensity” value ([1]; 100 ppb added) was 1.3, the “Off-Flavor Intensity” value ([1]; 100 ppb added) was 2.6 and the “Masking Component Intensity” value ([1]; 100 ppt added) was 0.1. For the same molecule, the “Off-Flavor Intensity” value ([1]; 100 ppt added) was 3.4, the “Masking Component Intensity” value ([2]; 1 ppb added) was 0.4 and the “Off-Flavor Intensity” value ([2]; 1 ppb added) was 2.6. The “Masking Component Intensity” value ([2]; 1 ppm added) was 2.4, the “Off-Flavor Intensity” value ([2]; 1 ppm added) was 1.5 and the “Masking Component Intensity” value ([2]; 5 ppm added) was 3.4. The “Off-Flavor Intensity” value ([2]; 5 ppm added) was 0.8, the “Masking Component Intensity” value ([2]; 10 ppb added) was 0.8 and the “Off-Flavor Intensity” value ([2]; 10 ppb added) was 2.3. The “Masking Component Intensity” value ([2]; 10 ppm added) was 3.8, the “Off-Flavor Intensity” value ([2]; 10 ppm added) was 0.5 and the “Masking Component Intensity” value ([2]; 10 ppt added) was 0.0. For the same molecule, the “Off-Flavor Intensity” value ([2]; 10 ppt added) was 3.4, the “Masking Component Intensity” value ([2]; 100 ppb added) was 1.5 and the “Off-Flavor Intensity” value ([2]; 100 ppb added) was 1.9. For the same molecule, the “Masking Component Intensity” value ([2]; 100 ppt added) was 0.1, the “Off-Flavor Intensity” value ([2]; 100 ppt added) was 3.0 and the “Masking Component Intensity” value ([3]; 1 ppb added) was 0.6. For the same molecule, the “Off-Flavor Intensity” value ([3]; 1 ppb added) was 2.6, the “Masking Component Intensity” value ([3]; 1 ppm added) was 2.6 and the “Off-Flavor Intensity” value ([3]; 1 ppm added) was 1.6. The “Masking Component Intensity” value ([3]; 5 ppm added) was 3.5, the “Off-Flavor Intensity” value ([3]; 5 ppm added) was 1.0 and the “Masking Component Intensity” value ([3]; 10 ppb added) was 0.9. The “Off-Flavor Intensity” value ([3]; 10 ppb added) was 2.5, the “Masking Component Intensity” value ([3]; 10 ppm added) was 3.9 and the “Off-Flavor Intensity” value ([3]; 10 ppm added) was 0.6. The “Masking Component Intensity” value ([3]; 10 ppt added) was 0.1, the “Off-Flavor Intensity” value ([3]; 10 ppt added) was 3.6 and the “Masking Component Intensity” value ([3]; 100 ppb added) was 1.4. For the same molecule, the “Off-Flavor Intensity” value ([3]; 100 ppb added) was 2.1, the “Masking Component Intensity” value ([3]; 100 ppt added) was 0.3 and the “Off-Flavor Intensity” value ([3]; 100 ppt added) was 3.1. The “Masking Component Intensity” value ([4]; 1 ppb added) was 0.3, the “Off-Flavor Intensity” value ([4]; 1 ppb added) was 3.1 and the “Masking Component Intensity” value ([4]; 1 ppm added) was 2.5. The “Off-Flavor Intensity” value ([4]; 1 ppm added) was 1.8, the “Masking Component Intensity” value ([4]; 5 ppm added) was 3.5 and the “Off-Flavor Intensity” value ([4]; 5 ppm added) was 1.1. The “Masking Component Intensity” value ([4]; 10 ppb added) was 0.8, the “Off-Flavor Intensity” value ([4]; 10 ppb added) was 2.4 and the “Masking Component Intensity” value ([4]; 10 ppm added) was 3.9. For the same molecule, the “Off-Flavor Intensity” value ([4]; 10 ppm added) was 0.8, the “Masking Component Intensity” value ([4]; 10 ppt added) was 0.0 and the “Off-Flavor Intensity” value ([4]; 10 ppt added) was 3.5. The “Masking Component Intensity” value ([4]; 100 ppb added) was 1.3, the “Off-Flavor Intensity” value ([4]; 100 ppb added) was 2.1 and the “Masking Component Intensity” value ([4]; 100 ppt added) was 0.1. The “Off-Flavor Intensity” value ([4]; 100 ppt added) was 3.3, the “Masking Component Intensity” value ([5]; 1 ppb added) was 0.4 and the “Off-Flavor Intensity” value ([5]; 1 ppb added) was 2.8. For the same molecule, the “Masking Component Intensity” value ([5]; 1 ppm added) was 2.0, the “Off-Flavor Intensity” value ([5]; 1 ppm added) was 1.6 and the “Masking Component Intensity” value ([5]; 5 ppm added) was 2.9. For the same molecule, the “Off-Flavor Intensity” value ([5]; 5 ppm added) was 1.0, the “Masking Component Intensity” value ([5]; 10 ppb added) was 0.6 and the “Off-Flavor Intensity” value ([5]; 10 ppb added) was 2.4. The “Masking Component Intensity” value ([5]; 10 ppm added) was 3.8, the “Off-Flavor Intensity” value ([5]; 10 ppm added) was 0.8 and the “Masking Component Intensity” value ([5]; 10 ppt added) was 0.1. For the same molecule, the “Off-Flavor Intensity” value ([5]; 10 ppt added) was 3.6, the “Masking Component Intensity” value ([5]; 100 ppb added) was 1.1 and the “Off-Flavor Intensity” value ([5]; 100 ppb added) was 2.0. The “Masking Component Intensity” value ([5]; 100 ppt added) was 0.3, the “Off-Flavor Intensity” value ([5]; 100 ppt added) was 3.3 and the “concentration that masks the off-flavor and does not affect the flavor of the food and/or beverage itself, lower limit” value [6] was no less than 100 ppt. The “concentration that masks the off-flavor and does not affect the flavor of the food and/or beverage itself, upper limit” value [6] was no more than 5 ppm, the “Masking Component Intensity” value ([7]; 1 ppb added) was 0.4 and the “Off-Flavor Intensity” value ([7]; 1 ppb added) was 3.0. For the same molecule, the “Masking Component Intensity” value ([7]; 1 ppm added) was 2.1, the “Off-Flavor Intensity” value ([7]; 1 ppm added) was 1.5 and the “Masking Component Intensity” value ([7]; 5 ppm added) was 3.4. For the same molecule, the “Off-Flavor Intensity” value ([7]; 5 ppm added) was 0.9, the “Masking Component Intensity” value ([7]; 10 ppb added) was 0.8 and the “Off-Flavor Intensity” value ([7]; 10 ppb added) was 2.5. The “Masking Component Intensity” value ([7]; 10 ppm added) was 3.6, the “Off-Flavor Intensity” value ([7]; 10 ppm added) was 0.4 and the “Masking Component Intensity” value ([7]; 10 ppt added) was 0.1. For the same molecule, the “Off-Flavor Intensity” value ([7]; 10 ppt added) was 3.6, the “Masking Component Intensity” value ([7]; 100 ppb added) was 1.5 and the “Off-Flavor Intensity” value ([7]; 100 ppb added) was 2.0. For the same molecule, the “Masking Component Intensity” value ([7]; 100 ppt added) was 0.3 and the “Off-Flavor Intensity” value ([7]; 100 ppt added) was 3.4.
